Source: US11382907B2, “Methods and compositions for treating aging-associated impairments using CCR3-inhibitors” (Alkahest, Inc., priority 2017, dated 2022)
pKi: −log10 of the molar value. Entries after “also recorded” stand apart in the source; their conditions may differ.

Columns and labels:
[1] = test system: CD68+ activated microglia; assay: IHC of CD68+ activated microglia in hippocampus of aged mice; assay type: in vivo, C57Bl/6 mice; conditions: 23-month-old mice, 30 mg/kg SQ BID 21 days
Source text: Mice were taken down on the day following the end of behavior testing. Anesthesia was induced by 2,2,2-tribromoethanol and mice were subsequently perfused with 0.9% saline trans-cardially. The brains were dissected and cut sagitally in two even halves. One half was snap frozen for later use in dry ice, and the other was fixed in 4% paraformaldehyde in PBS for use in immunohistochemistry. After two days of fixation, the hemibrains were transferred to a 30% sucrose in PBS solution and changed after two days. Hemibrains were sectioned at 30 um on a microtome at −22° C. Brain sections were stored in cryoprotectant media at −20° C. until needed for staining. Blocking was done on free floating sections in the appropriate serum at 10% serum in PBST 0.5%. Primary antibodies were incubated overnight at 4 C. For light microscopy, the following antibodies were used in the given concentrations: DCX, 1:200, Santa Cruz BioTech, CD68, 1:1000. AbD Serotec. Secondary biotinylated antibodies were applied the next day at a concentration of 1:300. Staining visualization was achieved by reaction with the ABC kit (Vector) and diaminobenzidine (Sigma). Dehydration of the mounted slides was achieved using ethanol and xylene dips. Images were acquired on a Leica light microscope at 5× magnification.
23-month-old C57Bl/6 mice were dosed with either vehicle control or Compound 1 subcutaneously twice daily for 21 days. […]

blood eosinophils = assay: Blood eosinophils in aged mice (FACS); assay type: in vivo, C57Bl/6 mice; conditions: 23-month-old mice, 30 mg/kg SQ BID 30 days, subset n=2, 5
Protocol: 200 uL of whole blood was collected during perfusion and shipped to Charles River Clinical Pathology Services (Shrewsbury, Mass.) for hematology analysis of eosinophil count by FACS (fluorescence activated cell sorter).
23-month-old C57Bl/6 mice were dosed with either vehicle control or Compound 1 subcutaneously twice daily for 30 days, and then sacrificed on the day of the last injection.
(§1) Treatment Groups: • Treatment Group 1a, Vehicle treatment: Aged C57Bl/6 mice (n=9), aged 23 months, received twice daily (BID) subcutaneous (SQ) treatment of vehicle solution for 30 days. • Treatment Group 3, Compound 1 treatment: Aged C57Bl/6 mice (n=18), aged 23 months, received twice daily (BID) subcutaneous (SQ) treatment of Compound 1, 30 mg/kg, for 30 days.

[2] = test system: twenty-four-month-old C57 mice; assay: T maze test in aged mice; assay type: in vivo; conditions: 4 weeks continuous infusion by osmotic pump
Protocol: The Water Maze was filled with water at least 24 hours prior to the test to allow it to reach room temperature. The water was dyed with white latex paint to make the animals visible for tracking and to allow for the use of a hidden platform. Two distinct visual cues were placed at the end of both T-arms of the T-Maze insert. On day 1 animals were given 4 trials each with a visible platform and a 30 min inter-trial interval. Animals were given 60 seconds to reach the platform. […] The goal arm was switched after every third mouse and both treatment groups had equal numbers of right and left turn goal arms. After each trial the mice were placed in an empty cage with blue pads and allowed to dry off under a red light lamp before being placed back into their home cage. Day 2 is the testing day, where animals are subjected to the same test of 4 trials each and a 30 min inter trial interval, but with a hidden platform. Animals were scored for right or wrong choice and for latency to reach the platform, and a binomial test was conducted to compare success rates between control and compound-treated mice. All trials were recorded using TopScan.
Twenty-four-month-old C57 mice were treated for 4 weeks with continuous infusion of Compound 1 or vehicle by Alzet osmotic pump, which were implanted to continuously deliver the two treatments. […]

CCR3 = molecular target: T1, CCR3 (Mus musculus, UniProt P51678); assay: cell line receptor binding (Ki for the compound in mice); conditions: determined by cell line receptor binding
T1 construct: host or cells: unnamed cell line
T1 sequence (P51678 1-359): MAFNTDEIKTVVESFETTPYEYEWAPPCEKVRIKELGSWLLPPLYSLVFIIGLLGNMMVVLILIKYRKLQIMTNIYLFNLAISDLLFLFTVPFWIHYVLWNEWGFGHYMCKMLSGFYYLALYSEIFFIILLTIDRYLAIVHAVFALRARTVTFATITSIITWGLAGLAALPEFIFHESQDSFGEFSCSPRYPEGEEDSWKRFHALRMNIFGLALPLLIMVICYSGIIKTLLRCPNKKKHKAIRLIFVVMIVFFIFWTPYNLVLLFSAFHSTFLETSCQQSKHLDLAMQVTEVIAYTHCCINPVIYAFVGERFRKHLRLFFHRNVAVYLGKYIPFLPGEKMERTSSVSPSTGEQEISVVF

[3] = test system: human eosinophils activated by human eotaxin-1; assay: Eosinophil shape change (ESC) assay (FACS, whole blood); assay type: cell-based; conditions: whole blood from humans treated with Compound 1, incubated with human recombinant eotaxin-1
Protocol: The ESC determines the shape change of human eosinophils activated by human eotaxin-1 (PreProTech, Rocky Hill, N.J.) compared to native eosinophils. The change is detected as the change in the forward-scatter measured by FACS (fluorescence activated cell sorter). The mean forward scatter of the autofluorescence (eosinophil) population for each sample was determined in conjunction with the mean of each set of sample triplicates. Methods of determining ESC have been previously described and are known in the art.
Whole blood from humans treated with Compound 1 was incubated with human recombinant eotaxin-1 to trigger eosinophil shape change (FIG. 34A) or CCR3 receptor internalization (FIG. 34B).

[4] = test system: inflammatory cytokines TNFa, IL6, IL1beta, IL5, IL17; assay: Luminex assay of inflammatory cytokines in plasma of aged mice; assay type: in vivo, C57Bl/6 mice; conditions: 23-month-old mice, 30 mg/kg SQ BID 21 days
Protocol: Panels of circulating cytokines from mouse plasma were analyzed by Luminex. Luminex Assay Service performed by Eve Technologies (Calgary, Alberta, Canada).
23-month-old C57Bl/6 mice were dosed with either vehicle control or Compound 1 subcutaneously twice daily for 21 days. Three weeks later, mice were subjected to behavior testing, and sacrificed the day following the last behavior test.
as §1, with “Group 1b,” for “Group 1a,”, “for 21” for “for 30”, “Group 4,” for “Group 3,”, “mice (n=17),” for “mice (n=18),”

## Cc1cc(C(=O)N(C)C)cc(NC(=O)[C@H]2CCC(=O)N2C2CCN(Cc3ccc(Cl)c(C)c3)CC2)n1 [Compound 1]
[1]
  CD68+ activated microglia in the hippocampus: strong trend towards decreased microgliosis; also recorded: trend lower
Blood eosinophils
  blood eosinophils (percentage of WBC count): strong trend towards decreased blood eosinophils; also recorded: decreased an endogenous age-related increase in blood eosinophils
[2]
  T maze success versus vehicle (binomial test): succeeded more than vehicle-treated mice
CCR3
  pKi: 6.91
[3]
  inhibition of eosinophil shape change versus plasma Compound 1 concentration: robust concentration-dependent effect
[4]
  plasma IL1beta level: strong trends in decrease; also recorded: trend lower
  plasma IL5 level: strong trends in decrease; also recorded: trend lower
  plasma IL6 level: strong trends in decrease; also recorded: trend lower
  plasma IL17 level: strong trends in decrease; also recorded: trend lower
  plasma TNFa level: strong trends in decrease; also recorded: trend lower
